Results reported in patent publication US20250034139A1, “AMINE COMPOUNDS HAVING ANTI-INFLAMMATORY, ANTIFUNGAL, ANTIPARASITIC, AND ANTICANCER ACTIVITY” (PHARMA CINQ, LLC, priority 2013, published 2025).
In brackets after ≈: the same amount, converted by molar mass. Like-named read-outs stand apart in the source and are kept apart here.

Experiments:
THP-1 cells [1] = assay: Example C: compound screen, viable THP-1 cell count after 5 hours +/- LPS; format: cell-based, Human; settings: for ability to inactivate pro-inflammatory THP-1 cells, in words (relative to benchmark AC): LPS-treated THP-1 cells
From the text: Background: THP-1 is a human acute myeloid leukemia (AML) cell line that can be induced into a macrophage-like cell with vitamin-D3 (vit-D3). In the macrophage, LPS (lipopolysaccharide; endotoxin) stimulation of toll-like receptor 4 (TLR-4) leads to NF-κB activation and secretion of inflammatory cytokines but also the priming of programmed death pathways through RIP and Caspase 8. The balance of this complex regulatory network is dependent on highly specific kinases, enzymes that require ATP. Disruption of either cytosolic pH or ATP availability/energy level uncouples this control network and the can macrophage shift away from production of inflammatory cytokines towards a programmed death event, which has the net effect of limiting inflammatory damage.

Trichophyton rubrum = assay: Example J: Trichophyton rubrum growth inhibition, scoring by eye; format: cell-based; settings: Trichophyton rubrum, 144 h; 6 days at 30° C., tested 6 to 40 μM; read-out: MIC, μM (maximum inhibition concentration, scoring by eye)
Outline: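 Filtered T. rubrum suspension from PDA plates (grown 4 days, 30 °C) treated with diluted compounds in triplicate, incubated 6 days at 30 °C. Plates imaged; MIC scored by eye.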

Candida albicans strains = assay: Example N: MIC and MFC (CLSI) against Candida albicans; format: cell-based; parameters: MIC at 50% inhibition / MIC at 100% inhibition: unit not given here; settings: for MIC / MFC: Candida albicans, three clinical strains; for MIC: read-out: MIC 100%, Range
Description: (§1) The objective of this study was to determine the antifungal activity of eight experimental compounds against a representative panel of fungal isolates, including Candida albicans, C. glabrata, Cryptococcus neoformans, Trichophyton rubrum, Aspergillus fumigatus, and Rhizopus spp. Antifungal activity was measured by minimum inhibitory concentration (MIC) and minimum fungicidal concentration (MFC).
(§2) Three recent clinical strains of each species, taken from the culture collection at the Center for Medical Mycology, Case Western University, were tested.
(§3) Compounds in powder form were dissolved in DMSO. Serial dilutions of each compound were then prepared in RPMI-1640 in a range of […].
(§4) MIC testing was performed according to the CLSI M27-A3 and M38-A2 standards for the susceptibility testing of yeasts and filamentous fungi, respectively (1, 2). Test isolates were subcultured from frozen slants onto potato dextrose agar plates (Trichophyton rubrum was subcultured onto oatmeal plates for conidia production) and checked for purity. Inocula were then prepared in RPMI-1640 (YNB for Cryptococcus) to a concentration of 0.5-2.5×10^3 colony-forming units (CFU)/ml or 0.4-5×10^4 conidia/ml for yeast and filamentous fungi, respectively.
(§5) MFC determinations were performed according to the modifications previously described by Canton et al. and Ghannoum and Isham. (3, 4) Specifically, the total contents of each clear well from the MIC assay were subcultured onto potato dextrose agar. To avoid antifungal carryover, the aliquots were allowed to soak into the agar and then were streaked for isolation once dry, thus removing the cells from the drug source.

[2] = system: Cryptococcus neoformans strains; assay: Example N: MIC and MFC (CLSI) against Cryptococcus neoformans; format: cell-based; settings: Cryptococcus neoformans, three clinical strains; for MIC: read-out: MIC 100%, Range, incubated for 72 hrs
Description: as §1, §2, §3, §4, §5

[3] = system: Aspergillus fumigatus strains; assay: Example N: MIC and MFC (CLSI) against Aspergillus fumigatus; format: cell-based; settings: for MIC50 / MIC: Aspergillus fumigatus; for MIC: read-out: MIC 100%; for cidal activity (MFC within 4 dilutions of the MIC), in words: 3 strains
Description: as §1, §2, §3, §4, §5

[4] = system: Trichophyton rubrum strains; assay: Example N: MIC and MFC (CLSI) against Trichophyton rubrum; format: cell-based; settings: for MIC: read-out: MIC 100%, Range, incubated for 96 hrs, three clinical strains; for MFC: three clinical strains
Description: as §1, §2, §3, §4, §5

[5] = system: 4T1 murine breast cancer cells; assay: Example S: in vitro anticancer screen, 4T1 cells, Wst1; format: cell-based, mouse; settings: Mus musculus, 4T1, 18 h, 18 hr, Wst1; for viability at 1 µM: read-out: 4T1 1 μM, percent of cancer cell survival relative to vehicle treated cells; for viability at 5 µM: read-out: 4T1 5 μM, percent of cancer cell survival relative to vehicle treated cells
Outline: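 4T1 cells seeded at 1×10^4/well were exposed to compound at 1 μM or 5 μM for 18 hr after plating. Wst1 tetrazolium dye was then added for about 2 hr and absorbance read at 450 nm (reference 630 nm). Values are percent survival relative to vehicle-treated cells.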

[6] = system: PC3 human prostate cancer cells; assay: Example S: in vitro anticancer screen, PC-3 cells, Wst1; format: cell-based; settings: Homo sapiens, PC-3, approximately 20 hours, Wst1, read-out: PC-3, percent of cancer cell survival relative to vehicle treated cells
Outline: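 PC-3 cells, 2×10^4 cells/well, exposed ~20 h to vehicle or compound at 0.4, 0.5 or 2.5 μM as specified per compound. Wst1 dye added for 2 h; absorbance 450 nm (reference 630 nm), triplicates. Values are percent cell survival versus vehicle-treated cells.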

[7] = system: PC-3 prostate cancer cells; assay: Example T: sensitisation of PC-3 cells to doxorubicin, oxaliplatin, paclitaxel or vincristine, Wst1; format: cell-based, human; settings: PC-3 cells, 72 hours; for viability at 0.4 µM: compound 0.4 μM alone; for Doxorubicin 3.5 μM: percent cell survival / Oxaliplatin 100 μM: percent cell survival / Paclitaxel 50 μM: percent cell survival / Vincristine 100 nM: percent cell survival: chemotherapy agent alone normalized to 100%
THP-1 cells [8] = assay: Example D: LPS-triggered THP-1 cell death assay, acute/5-hour and chronic/48-hour; format: cell-based, Human; settings: 0.1 μM, 5-hour and 48-hour time points
Description: Compounds of the invention were tested at 0.1 μM versus AC in the LPS-triggered THP-1 cell death assay. Both acute/5-hour and chronic/48-hour phases of cell death were assessed. Compounds were screened in batches with DMSO as the negative control and AC as the high activity control.

[9] = Homo sapiens, Wst1, vehicle = 100, read-out: No Chemo: percent cell survival
[10] = compound 0.4 μM + doxorubicin 3.5 μM
[11] = compound 0.4 μM + oxaliplatin 100 μM
[12] = compound 0.4 μM + paclitaxel 50 μM
[13] = compound 0.4 μM + vincristine 100 nM

| SMILES | Reduction in viable THP-1 cell count (percent change) from 0 hours, Mean ± SE (THP-1 cells [1]; Compound (0.1 μM), No LPS) | Reduction in viable THP-1 cell count (percent change) from 0 hours, Mean ± SE (THP-1 cells [1]; Compound (0.1 μM), Plus LPS) | Reduction in viable THP-1 cell count (percent change) from 0 hours, Mean ± SE (THP-1 cells [1]; Compound (1.0 μM), No LPS) | Reduction in viable THP-1 cell count (percent change) from 0 hours, Mean ± SE (THP-1 cells [1]; Compound (1.0 μM), Plus LPS) | MIC (Trichophyton rubrum) | MIC (Candida albicans strains; 24 hr) | MIC (Candida albicans strains; 48 hr) | MFC (Candida albicans strains; 48 hr) | MIC [2] | MFC [2] | MIC50 ([3]; 24 h) | MIC ([3]; 24 h) | MIC50 ([3]; 48 h) | MIC ([3]; 48 h) | MIC [4] | MFC [4] | viability at 1 µM [5] | viability at 5 µM [5] | viability at 0.4 µM [6] | viability at 0.4 µM [7, 9] | further results |
| --- | --- | --- | --- | --- | --- | --- | --- | --- | --- | --- | --- | --- | --- | --- | --- | --- | --- | --- | --- | --- | --- |
| CCCCCCOc1cccc(CNc2ccnc3ccccc23)c1 [Compound AC, N-[3-(Hexyloxy)benzyl]quinolin-4-amine] | −7.48 ± 5.82% | −15.14 ± 2.06% | −9.60 ± 1.96% | −44.25 ± 2.53% | 18 µM (≈ 6.02 µg/mL) | 0.12 to 1 µg/mL (≈ 0.359 to 2.99 µM) | 0.5 to 2 µg/mL (≈ 1.49 to 5.98 µM) | 2 µg/mL (≈ 5.98 µM) | 0.25 to 4 µg/mL (≈ 0.747 to 12 µM) | 8 µg/mL (≈ 23.9 µM) | < 0.12 µg/mL | 0.25 to 0.5 µg/mL (≈ 0.747 to 1.49 µM) | 0.5 to 1 µg/mL (≈ 1.49 to 2.99 µM) | 1 µg/mL (≈ 2.99 µM) | 0.5 to 4 µg/mL (≈ 1.49 to 12 µM) | 0.5 to 4 µg/mL (≈ 1.49 to 12 µM) | 23.3% | 19.3% | 61.5% | 61.5% | cidal activity (MFC within 4 dilutions of the MIC), in words (Candida albicans strains; 3 strains): cidal against 2 of the 3 C. albicans strains tested; MIC at 50% inhibition (Candida albicans strains; 24 hrs): <0.12-0.25; MIC at 100% inhibition (Candida albicans strains; 24 hrs): <0.12-1; MIC at 50% inhibition (Candida albicans strains; 48 hrs): <0.12-1; MIC at 100% inhibition ([3]; 48 hrs): 1 µg/mL (≈ 2.99 µM); Doxorubicin 3.5 μM: percent cell survival [7, 10]: 32.8%; Oxaliplatin 100 μM: percent cell survival [7, 11]: 30%; Paclitaxel 50 μM: percent cell survival [7, 12]: 14%; Vincristine 100 nM: percent cell survival [7, 13]: 34.1% |
| CCCCOCCCCCCCCCCNc1ccnc2ccccc12 [AM, N-(10-Butoxydecyl)quinolin-4-amine] | −5.57 ± 2.67% | −19.80 ± 1.96% | −8.47 ± 3.31% | −44.05 ± 1.38% | 12 µM (≈ 4.28 µg/mL) | 2 to 4 µg/mL (≈ 5.61 to 11.2 µM) | 2 to 4 µg/mL (≈ 5.61 to 11.2 µM) | 4 µg/mL (≈ 11.2 µM) | 2 to 4 µg/mL (≈ 5.61 to 11.2 µM) | 8 µg/mL (≈ 22.4 µM) | 0.5 to 1 µg/mL (≈ 1.4 to 2.8 µM) | 1 to 2 µg/mL (≈ 2.8 to 5.61 µM) | 2 to 4 µg/mL (≈ 5.61 to 11.2 µM) | 4 µg/mL (≈ 11.2 µM) | 0.5 to 4 µg/mL (≈ 1.4 to 11.2 µM) | 1 to 4 µg/mL (≈ 2.8 to 11.2 µM) | 24.3% | 29.5% | 58.5% | 58.5% | ability to inactivate pro-inflammatory THP-1 cells, in words (relative to benchmark AC) (THP-1 cells [1]): higher activity than the active benchmark compound AC; activity relative to AC in the LPS-triggered THP-1 cell death assay, in words (THP-1 cells [8]): more active than AC at the chronic/48-hour time point; cidal activity (MFC within 4 dilutions of the MIC), in words [3]: cidal against one of the A. fumigatus strains (MRL 28397); MFC ([3]; range over Aspergillus fumigatus strains, in 48 hr): 4 to 32 µg/mL (≈ 11.2 to 89.7 µM); Doxorubicin 3.5 μM: percent cell survival [7, 10]: 24.7%; Oxaliplatin 100 μM: percent cell survival [7, 11]: 25.4%; Paclitaxel 50 μM: percent cell survival [7, 12]: 54.8%; Vincristine 100 nM: percent cell survival [7, 13]: 26% |
| CCCCCCCCCCNc1ccnc2ccccc12 [Compound AG, N-(Decyl)quinolin-4-amine] | −6.24 ± 0.69% | −21.28 ± 1.52% | −4.02 ± 2.83% | −38.58 ± 0.73% | 18 µM (≈ 5.12 µg/mL) | 0.5 to 2 µg/mL (≈ 1.76 to 7.03 µM) | 1 to 4 µg/mL (≈ 3.52 to 14.1 µM) | 2 to 4 µg/mL (≈ 7.03 to 14.1 µM) | 4 µg/mL (≈ 14.1 µM) | 8 to 16 µg/mL (≈ 28.1 to 56.2 µM) | 0.5 to 1 µg/mL (≈ 1.76 to 3.52 µM) | 1 µg/mL (≈ 3.52 µM) | 1 to 2 µg/mL (≈ 3.52 to 7.03 µM) | 1 to 2 µg/mL (≈ 3.52 to 7.03 µM) | 0.25 to 2 µg/mL (≈ 0.879 to 7.03 µM) | 0.5 to 2 µg/mL (≈ 1.76 to 7.03 µM) |  |  |  |  | ability to inactivate pro-inflammatory THP-1 cells, in words (relative to benchmark AC) (THP-1 cells [1]): higher activity than the active benchmark compound AC; activity relative to AC in the LPS-triggered THP-1 cell death assay, in words (THP-1 cells [8]): more active than AC at the chronic/48-hour time point; cidal activity (MFC within 4 dilutions of the MIC), in words [3]: cidal against one of the A. fumigatus strains (MRL 28397); viability at 2.5 µM ([6]; 2.5 μM): 18.4%; viability at 2.5 µM ([7]; Homo sapiens, compound 2.5 μM alone, Wst1, vehicle = 100, read-out: No Chemo: percent cell survival): 18.4%; Doxorubicin 3.5 μM: percent cell survival ([7]; compound 2.5 μM + doxorubicin 3.5 μM): 21.1%; Oxaliplatin 100 μM: percent cell survival ([7]; compound 2.5 μM + oxaliplatin 100 μM): 27.1%; Paclitaxel 50 μM: percent cell survival ([7]; compound 2.5 μM + paclitaxel 50 μM): 21.8%; Vincristine 100 nM: percent cell survival ([7]; compound 2.5 μM + vincristine 100 nM): 17.1% |
